The structures appear in SMILES notation.

The subject of the experiment is Mus musculus. The experiment is described as follows: Analgetic activity in sc dosed albino DD mouse by tail pressure stimuli method. The class given is functional.
For the compound `Br.CN1CC2CC1Cc1ccc(O)cc12` (stereo unspecified), the 50% effect level (ED50) was put at a dose of 43 mg/kg.

The compound `CC(O)C(=O)O.CN1CC2Cc3ccc(O)cc3C1C2` (stereo unspecified) returned an ED50 of 29.1 mg/kg.

On to `CN1CCC2Cc3ccc(O)cc3C1C2` (stereo unspecified), for which the 50% effect level (ED50) was put at a dose of 17.2 mg/kg.

`CN1CCCC2Cc3ccc(O)cc3C1C2.Cl.O` (stereo unspecified) yielded an ED50 of 15 mg/kg.

With `Br.CN1CCCC2(C)CC1Cc1ccc(O)cc12` (stereo unspecified), the 50% effect level (ED50) was put at a dose of 4.1 mg/kg.

Turning to `Br.C[C@@H]1C2Cc3ccc(O)cc3C1(C)CCN(C)C2` (stereo partly specified), the 50% effective dose (ED50) stood at 1 mg/kg. This ED50 lies about 4.1-fold lower than the previous one.

As to `Br.CN1CCC2Cc3ccc(O)cc3C(C2)C1` (stereo unspecified), it took a dose of 38.8 mg/kg to reach the 50% effect level (ED50). This ED50 lies about 39-fold higher than the previous one.

Turning to `Br.CN1CC2Cc3ccc(O)cc3C(C)(C2)C1` (stereo unspecified), the ED50 is 8.4 mg/kg.

As for `CC1NCC2Cc3ccc(O)cc3C1C2` (stereo unspecified), the ED50 is 4.5 mg/kg. Compared with the last compound, the ED50 is about 1.9-fold lower.

Take `COc1ccc2c3c1O[C@H]1[C@@H](O)C=C[C@H]4[C@@H](C2)N(C)CC[C@@]341.COc1ccc2c3c1O[C@H]1[C@@H](O)C=C[C@H]4[C@@H](C2)N(C)CC[C@@]341.O.O=P(O)(O)O.O=P(O)(O)O` [CODEINE PHOSPHATE]: the median effective dose (ED50) came out at 9.2 mg/kg.

With `CN1CC[C@]23c4c5ccc(O)c4O[C@H]2[C@@H](O)C=C[C@H]3[C@H]1C5.Cl` [MORPHINE HYDROCHLORIDE], the 50% effective dose (ED50) was 1.2 mg/kg.

Usually ED50 stands for the dose at which the effect has come halfway, by size or by number of responders.

For the origin of these results see ChEMBL document CHEMBL3244408, “Synthesis and analgetic activity of some benzomorphan analogues” (1978).
